Measured values reported in patent US9464064B2, “HCV helicase inhibitors and methods of use thereof” (University of Kansas, priority 2011, dated 2016).
Read-outs that look alike come from different tables or passages of the source.

Assays:
[1] = tested on: HCV RLuc subgenomic replicon (genotype 1b) in Huh-7.5 cells; assay: HCV subgenomic replicon assay (Renilla luciferase); assay type: cell-based, hepatitis C virus
Description: An HCV Renilla luciferase reporter construct (HCV RLuc; Huang, et al. (2006) Hepatology 43:81-90) was used to measure the effect of each compound on cellular HCV RNA levels. In HCV RLuc, the HCV internal ribosome entry site (IRES) drives the translation of the neomycin and Renilla luciferase genes while the HCV nonstructural proteins (NS3 to NS5B) are translated from the Encephalomyocarditis virus IRES (Huang, et al. (2006) supra). The plasmid DNA was cleaved with ScaI, purified by phenol/chloroform extraction followed by ethanol precipitation, and used as template for RNA transcription using […] T7 RNA transcription kit (Ambion, Austin, Tex.). The RNA transcripts were treated with 2 U DNase I (Ambion) at 37° C. for 30 minutes, purified by acid phenol/chloroform extraction, followed by isopropanol precipitation, and suspended in diethylpyrocarbonate-treated water. RNA concentration was determined by spectrophotometry by measuring the A260. RNA integrity and size was checked on 1% agarose gel. Transcribed RNA was stored in aliquots at −80° C. until needed.
Huh-7.5 cells were transfected with HCV RNA by electroporation. Briefly, subconfluent Huh7.5 cells were trypsinized, suspended in complete growth medium, and centrifuged at 1,000×g for 5 minutes at 4° C. The cell pellets were then washed twice with ice-cold phosphate-buffered saline (PBS) and suspended at 1.75×10^7 cells/mL in ice-cold PBS. Replicon RNA (5 μg) was mixed with 0.4 mL of cell suspension and transferred to 2 mm gap width electroporation cuvette (EPPENDORF AG, Germany) and pulsed 5 times for 99 μsec at 820 V over 1.1 sec intervals using the ECM 830 electroporator instrument (BTX Harvard Apparatus, Holliston, Mass.). After a 5 minute recovery period at room temperature, cells were transferred to 10 ml complete growth medium, and seeded into 10 cm diameter cell culture dishes. Twenty-four hours after transfection, the medium was replaced with fresh complete DMEM supplemented with 1 mg/ml geneticin (Invitrogen) and the medium was replaced every three to four days with fresh medium containing 1 mg/mL geneticin. Geneticin-resistant colonies were selected for a period of two weeks and expanded in the presence of 250 μg/mL geneticin.
HCV RLuc replicon cells were seeded at a density of 10×10^3 cells per well in 96-well plates and incubated for 4-5 hours to allow the cells to attach to the plate. The compounds dissolved in dimethyl sulfoxide (DMSO) were added at a final concentration of 10 μM (DMSO solvent final concentration was 0.5%) and the cells were incubated for 72 hours at 37° C. under 5% CO2 atmosphere. The effects of compounds on HCV replication were then assessed by measuring the Renilla luciferase activity in compound-treated versus DMSO-treated cells. At the end of the incubation period, the medium was aspirated and the cells were washed with 1×PBS. The Renilla luciferase reporter gene assay was performed using the Renilla luciferase assay kit (PROMEGA, Madison, Wis.) according to the manufacturer's instructions. Briefly, the cells were lysed by addition of 50 μL of 1× Renilla luciferase lysis buffer followed by two cycles of freeze/thaw. The luciferase activity content of the lysate was measured with a FLUOSTAR Omega microplate reader instrument (BMG Labtech, Germany) after injecting 50 μL of luciferase substrate and reading for 5 seconds.
To determine if the above identified compounds might be useful as HCV antiviral agents, they were added to cells harboring HCV subgenomic RNA replicon. The HCV replicon chosen was derived from the same HCV strain (genotype 1b) as the NS3 protein used for screening and enzyme assays. […] 75:4614-4624; Blight, et al. (2002) J. Virol. 76:13001-13014). […]

NS3h_2a(JFH1) = molecular target: T1, NS3h_2a(JFH1) (Hepatitis C virus genotype 2a, UniProt Q99IB8); assay: MBHA, DNA substrate, genotype 2a helicase; assay type: biochemical, hepatitis C virus genotype 2a(JFH1)
T1 construct: truncated C-terminally His-tagged NS3 proteins lacking the N-terminal protease, called NS3h; His-tag (C); made in house
T1 sequence (Q99IB8 1196-1661): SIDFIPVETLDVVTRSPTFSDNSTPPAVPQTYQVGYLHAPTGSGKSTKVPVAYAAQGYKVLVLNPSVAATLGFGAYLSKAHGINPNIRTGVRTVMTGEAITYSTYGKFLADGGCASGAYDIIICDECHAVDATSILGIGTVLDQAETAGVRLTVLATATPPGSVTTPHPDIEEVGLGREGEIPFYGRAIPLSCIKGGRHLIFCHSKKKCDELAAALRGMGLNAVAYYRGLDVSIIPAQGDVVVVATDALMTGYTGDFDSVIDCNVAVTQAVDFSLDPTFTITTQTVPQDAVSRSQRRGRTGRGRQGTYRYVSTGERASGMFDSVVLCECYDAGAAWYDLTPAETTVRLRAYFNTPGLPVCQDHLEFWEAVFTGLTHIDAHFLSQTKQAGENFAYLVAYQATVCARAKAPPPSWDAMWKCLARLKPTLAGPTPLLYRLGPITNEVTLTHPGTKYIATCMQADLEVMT
Protocol: All oligonucleotides were purchased from Integrated DNA Technologies (IDT, Coralville, Iowa). Primuline derivatives were synthesized and purified as described herein. Three different NS3 proteins were used in this study. Two were truncated C-terminally His-tagged NS3 proteins lacking the N-terminal protease, called NS3h, the third was a full-length NS3 with the portion of NS4A needed for protease activation fused to its N-terminus, called scNS4A-NS3 (Howe, et al. (1999) Protein Sci. 8:1332-41), and the fourth was a 23 kDa scNS4A-NS3 protease fragment lacking the helicase domains, called scNS4A-NS3p (Protein One, Rockville, Md.). NS3h was expressed from two different HCV strains. NS3h_1b(con1) was from the con1 strain of genotype 1b (GENBANK accession AB114136), and NS3h_2a(JFH1) was from the JFH1 strain of HCV genotype 2a (GENBANK accession AJ238799). […] His-tagged recombinant NS3h_1b(con1), NS3h_2a(JFH1), and scNS4A-NS3 (also from genotype 1b(con1)) were expressed, and purified as previously described (Frick, et al. (2010) supra; Lam, et al. (2003) J. Virol. 77:3950-3961). The scNS4A-NS3p (genotype 1b) was from Protein One. A plasmid expressing NS3h from dengue virus strain 2 (NS3h_DV2)(GENBANK accession 2BMF) is known in the art (Xu, et al. (2005) J. Virol. 79:10278-10288), and used to express and purify NS3h_DV2 (Belon, et al. (2010) supra)
Compounds that specifically target less conserved regions of a HCV protein are often not potent inhibitors of the same protein derived from other genotypes, and they might be susceptible to rapid evolution of related viruses. As described herein, primuline derivatives can inhibit HCV helicase isolated from the genotype 1b(con1) strain. Therefore to further analyze specificity, the subset of primuline analogs was tested on the helicase isolated from the genotype 2a(JFH1) strain. The two recombinant proteins differ at 83 of their 480 amino acids. The JHF1 strain is also of interest because it serves as the backbone for HCV strains capable of replicating in cell culture (Wakita, et al. (2005) Nat. Med. 11:791-796). The molecular beacon-based helicase assay (MBHA) (Belon & Frick (2008) supra) was used to measure the ability of each compound to inhibit DNA unwinding catalyzed by NS3h isolated from genotype 2a(JFH1) (NS3h_2a(JFH1)). […] Selected compounds were also tested for the ability to inhibit helicase reactions catalyzed by full-length NS3 and a single chain NS4A-NS3 protein (scNS4A-NS3) described below and used for protease assays.

[2] = Hepatitis C virus, Huh7.5, 10 μM compound, triplicate, average ± SD, read-out: HCV replication (% Inh.)
[3] = Hepatitis C virus, Huh7.5, 10 μM, read-out: Replicon (% Inhibition @ 10 μM)
[4] = DNA-based MBHA, genotype 2a(JFH1), read-out: DNA Helicase NS3h_2a IC50 (μM) ± SD
[5] = genotype 2a (JFH1), read-out: Target Potency MBHA (IC50 avg., μM) 2a (JFH1) (converted)

| SMILES | inhibition at 10 µM [1, 2] [%] | inhibition at 10 µM [1, 3] [%] | IC50 (NS3h_2a(JFH1); [4]) [µM] | IC50 (NS3h_2a(JFH1); [5]) [µM] | EC50 ([1]; Hepatitis C virus, Huh7.5, HCV Rluc subgenomic replicon cells, read-out: concentration needed to reduce replicon-encoded luciferase by 50%) [µM] | combination of compound 24 and telaprevir on replicon expression ([1]; Rluc subgenomic HCV replicon cells) | loss of HCV replicon Rluc activity ([1]; elevated concentrations (>10 μM)) |
| --- | --- | --- | --- | --- | --- | --- | --- |
| Cc1ccc2nc(-c3ccc4nc(-c5ccc(NC(=O)c6ccc(Br)cc6)cc5)sc4c3)sc2c1S(=O)(=O)O [Compound 15, 2′-(4-(4-bromobenzamido)phenyl)-6-methyl-[2,6′-bibenzo[d]thiazole]-7-sulfonic acid] | 7 ± 18 | 7 ± 18 | 7 ± 3.3 | 7.4 ± 3 |  |  |  |
| Cc1ccc2nc(-c3ccc4nc(-c5ccc(NC(=O)c6ccc(NC(=O)OCC7c8ccccc8-c8ccccc87)cc6)cc5)sc4c3)sc2c1S(=O)(=O)O [Compound 16, 2′-(4-(4-((((9H-fluoren-9-yl)methoxy)carbonyl)amino)benzamido)phenyl)-6-methyl-[2,6′-bibenzo[d]thiazole]-7-sulfonic acid] | 57 ± 21 | 57 ± 21 |  | 5.8 ± 3.1 |  |  |  |
| Cc1ccc2nc(-c3ccc4nc(-c5ccc(NC(=O)c6cccc(Cl)c6)cc5)sc4c3)sc2c1S(=O)(=O)O [Compound 17, 2′-(4-(3-chlorobenzamido)phenyl)-6-methyl-[2,6′-bibenzo[d]thiazole]-7-sulfonic acid] | 54 ± 10 | 54 ± 10 | 4 ± 0.5 | 3.9 ± 1 |  |  |  |
| Cc1ccc2nc(-c3ccc4nc(-c5ccc(NC(=O)c6ccc(Cl)c(Cl)c6)cc5)sc4c3)sc2c1S(=O)(=O)O [Compound 18, 2′-(4-(3,4-dichlorobenzamido)phenyl)-6-methyl-[2,6′-bibenzo[d]thiazole]-7-sulfonic acid] | 43 ± 15 | 43 ± 15 |  | 4.5 ± 1 |  |  |  |
| Cc1ccc2nc(-c3ccc4nc(-c5ccc(NC(=O)c6ccccc6C(F)(F)F)cc5)sc4c3)sc2c1S(=O)(=O)O [Compound 19, 6-methyl-2′-(4-(2-(trifluoromethyl)benzamido)phenyl)-[2,6′-bibenzo[d]thiazole]-7-sulfonic acid] | 0 | 0.3 ± 9 |  | 24.3 ± 9 |  |  |  |
| Cc1ccc2nc(-c3ccc4nc(-c5ccc(NC(=O)c6cccc(C(F)(F)F)c6)cc5)sc4c3)sc2c1S(=O)(=O)O [Compound 20, 6-methyl-2′-(4-(3-(trifluoromethyl)benzamido)phenyl)-[2,6′-bibenzo[d]thiazole]-7-sulfonic acid] | 41 ± 8 | 41 ± 8 |  | 15.9 ± 2 |  |  |  |
| Cc1ccc2nc(-c3ccc4nc(-c5ccc(NC(=O)c6c(F)cccc6C(F)(F)F)cc5)sc4c3)sc2c1S(=O)(=O)O [Compound 21, 2′-(4-(2-fluoro-6-(trifluoromethyl)benzamido)phenyl)-6-methyl-[2,6′-bibenzo[d]thiazole]-7-sulfonic acid] | 55 ± 7 | 55 ± 7 |  | 54 ± 19.7 |  |  |  |
| Cc1ccc2nc(-c3ccc4nc(-c5ccc(NC(=O)c6cccc(C(F)(F)F)c6F)cc5)sc4c3)sc2c1S(=O)(=O)O [Compound 22, 2′-(4-(2-fluoro-3-(trifluoromethyl)benzamido)phenyl)-6-methyl-[2,6′-bibenzo[d]thiazole]-7-sulfonic acid] | 48 ± 18 | 48 ± 18 |  | 8.1 ± 2 |  |  |  |
| Cc1ccc2nc(-c3ccc4nc(-c5ccc(NC(=O)c6ccc(C(F)(F)F)c(F)c6)cc5)sc4c3)sc2c1S(=O)(=O)O [Compound 23, 2′-(4-(3-fluoro-4-(trifluoromethyl)benzamido)phenyl)-6-methyl-[2,6′-bibenzo[d]thiazole]-7-sulfonic acid] | 48 ± 4 | 48 ± 4 |  | 13 ± 2 |  |  |  |
| Cc1ccc2nc(-c3ccc4nc(-c5ccc(NC(=O)c6cc(C(F)(F)F)cc(C(F)(F)F)c6)cc5)sc4c3)sc2c1S(=O)(=O)O [Compound 24, 2′-(4-(3,5-bis(trifluoromethyl)benzamido)phenyl)-6-methyl-[2,6′-bibenzo[d]thiazole]-7-sulfonic acid] | 60 ± 4 | 60 ± 4 | 29 ± 5.2 | 28.7 ± 5 | 5 ± 2 | No synergy | more than 90% |
| Cc1ccc2nc(-c3ccc4nc(-c5ccc(NC(=O)c6cc(C(F)(F)F)ccc6F)cc5)sc4c3)sc2c1S(=O)(=O)O [Compound 25, 2′-(4-(2-fluoro-5-(trifluoromethyl)benzamido)phenyl)-6-methyl-[2,6′-bibenzo[d]thiazole]-7-sulfonic acid] | 39 ± 4 | 39 ± 4 | 7 ± 0.9 | 6.7 ± 1 |  |  |  |
| Cc1ccc2nc(-c3ccc4nc(-c5ccc(NC(=O)c6cc(F)ccc6C(F)(F)F)cc5)sc4c3)sc2c1S(=O)(=O)O [Compound 26, 2′-(4-(5-fluoro-2-(trifluoromethyl)benzamido)phenyl)-6-methyl-[2,6′-bibenzo[d]thiazole]-7-sulfonic acid] | 61 ± 14 | 61 ± 14 |  | 16.6 ± 2 |  |  |  |
| Cc1ccc2nc(-c3ccc4nc(-c5ccc(NC(=O)c6cc(F)cc(C(F)(F)F)c6)cc5)sc4c3)sc2c1S(=O)(=O)O [Compound 27, 2′-(4-(3-fluoro-5-(trifluoromethyl)benzamido)phenyl)-6-methyl-[2,6′-bibenzo[d]thiazole]-7-sulfonic acid] | 51 ± 9 | 51 ± 9 |  | 15.8 ± 2.2 |  |  |  |
